The values that follow come from patent publication US4746736A, “Carbapenem antibiotics” (priority 1986, dated 1988).

The test system of series [1] is E. coli A20341-1. The series is described as follows: In vitro MIC by tube dilution, E. coli A20341-1. Type of series: cell-based.
The test system of series [2] is P. mirabilis A-9900. The series is described as follows: In vitro MIC by tube dilution, P. mirabilis A-9900. Type of series: cell-based.
For series [3], the system named is E. cloacae A-9659. As to the kind of experiment: In vitro MIC by tube dilution, E. cloacae A-9659. Type of series: cell-based.
Series [4] has as its system P. aeruginosa A-9843A. The series is described as follows: In vitro MIC by tube dilution, P. aeruginosa A-9843A. Type of series: cell-based. To be noted: P. aeruginosa A-9843a.
Series [5] is described as follows: Blood levels in mice after intramuscular administration. The settings on record: 20 mg/kg i.m., mice (compiled table).
Source text: Compounds were solubilized in 0.1 M phosphate buffer pH 7.
Values are from a single test; 4 mice used per compound.
Compounds were solubilized in 0.1 M phosphate buffer, pH 7.
Values based on a single test; 4 mice per compound.
Series [6] relates to P. morganii A15153. The series is described as follows: In vitro MIC by tube dilution, P. morganii (M. morganii) A15153. Type of series: cell-based.
The subject of series [7] is S. marcescens A20019. The series is described as follows: In vitro MIC by tube dilution, S. marcescens A20019. Type of series: cell-based.
Series [8] deals with S. aureus A-9537. As to the kind of experiment: In vitro MIC by tube dilution, S. aureus A-9537. Type of series: cell-based.
Series [9] relates to P. vulgaris A21559. As to the kind of experiment: In vitro MIC by tube dilution, P. vulgaris A21559. Type of series: cell-based.
The subject of series [10] is S. aureus A-9606 (Pen-res.). As to the kind of experiment: In vitro MIC by tube dilution, S. aureus A-9606 (Pen-res.). To be noted: S. aureus A-9606 (Pen-res). Type of series: cell-based.
Series [11] deals with P. aeruginosa A21213. The series is described as follows: In vitro MIC by tube dilution, P. aeruginosa A21213. Type of series: cell-based. The settings on record: P. aeruginosa A21213.
In series [12] the test system is S. pneumoniae A-9585. The series is described as follows: In vitro MIC by tube dilution, S. pneumoniae A-9585. Type of series: cell-based.
Series [13] has as its system S. faecalis A20688. The series is described as follows: In vitro MIC by tube dilution, S. faecalis A20688. Type of series: cell-based.
The test system of series [14] is E. coli A15119. As to the kind of experiment: In vitro MIC by tube dilution, E. coli A15119. Type of series: cell-based.
In series [15] the test system is P. rettgeri A22424. As to the kind of experiment: In vitro MIC by tube dilution, P. rettgeri A22424. Type of series: cell-based.
Series [16] concerns K. pneumoniae A20468. As to the kind of experiment: In vitro MIC by tube dilution, K. pneumoniae A20468. Type of series: cell-based.
For series [17], the system named is E. cloacae A-9656. As to the kind of experiment: In vitro MIC by tube dilution, E. cloacae A-9656. Type of series: cell-based.
For series [18], the system named is K. pneumoniae A-9664. As to the kind of experiment: In vitro MIC by tube dilution, K. pneumoniae A-9664. Type of series: cell-based.
Series [19] deals with S. pyogenes A9604. As to the kind of experiment: In vitro MIC by tube dilution, S. pyogenes A9604. Type of series: cell-based.
For series [20], the system named is S. aureus A15097 (Meth-res.). The series is described as follows: In vitro MIC by tube dilution, S. aureus A15097 (Meth-res.). Type of series: cell-based. The settings on record: Staphylococcus aureus; S. aureus A15097 (Meth-res).
The mark [21] stands for this setting: Escherichia coli, A203411, read-out: MIC.
Where [22] appears, read: Proteus mirabilis, A9900, P. mirabilis A-9900, read-out: MIC.
Where [23] appears, read: Enterobacter cloacae, A9659, E. cloacae A-9659, read-out: MIC.
The mark [24] stands for this setting: Pseudomonas aeruginosa, A9843A, read-out: MIC.
The mark [25] stands for this setting: Morganella morganii, A15153, M. morganii A15153, read-out: MIC.
Setting [26] is: Serratia marcescens, read-out: MIC.
The mark [27] stands for this setting: Staphylococcus aureus, A9537, S. aureus A-9537 +50% serum, read-out: MIC.
Where [28] appears, read: Staphylococcus aureus, A9537, S. aureus A-9537, no serum, read-out: MIC.
The mark [29] stands for this setting: Staphylococcus aureus, read-out: MIC.
The mark [30] stands for this setting: Providencia rettgeri, A22424, P. rettgeri A22424, read-out: MIC.
[31] abbreviates: Enterobacter cloacae, A9656, E. cloacae A-9656, read-out: MIC.
Setting [32] is: Klebsiella pneumoniae, A9664, read-out: MIC.

In brackets after ≈: the same amount, converted by molar mass. Read-outs that look alike come from different tables or passages of the source.

On to `C[C@@H](O)C1C(=O)N2C(C(=O)[O-])=C(SCc3cn(C)n[n+]3C)CC12` (stereo partly drawn) [Example 15 "C", 3-[4-(N,N-dimethyl-1,2,3-triazolium)methylthio]-6α-[1-(R)-hydroxyethyl]-7-oxo-1-azabicyclo(3.2.0)hept-2-ene-2-carboxylate], for which the MIC in series [1] came to 0.03 µg/mL (≈ 0.0887 µM); in series [2] (P. mirabilis A-9900) it was 0.06 µg/mL (≈ 0.177 µM); in series [3] (E. cloacae A-9659), 0.13 µg/mL (≈ 0.384 µM); in series [4], 8 µg/mL (≈ 23.6 µM); in series [6] (M. morganii A15153), 0.25 µg/mL (≈ 0.739 µM); in [7], 0.13 µg/mL (≈ 0.384 µM). For the same compound, the MIC in series [8] (S. aureus A-9537 +50% serum) was 0.06 µg/mL (≈ 0.177 µM); in [8] (S. aureus A-9537, no serum), 0.016 µg/mL (≈ 0.0473 µM); in series [9] (P. vulgaris A21559) it was 0.06 µg/mL (≈ 0.177 µM); in [10], 0.03 µg/mL (≈ 0.0887 µM); in series [11] it was 0.5 µg/mL (≈ 1.48 µM); in [12] (S. pneumoniae A-9585) it was 0.0005 µg/mL (≈ 0.00148 µM). In addition, the MIC in [13] (S. faecalis A20688) was 0.5 µg/mL (≈ 1.48 µM); in [14] (E. coli A15119) it was 0.06 µg/mL (≈ 0.177 µM); in series [15] (P. rettgeri A22424), 0.25 µg/mL (≈ 0.739 µM); in series [16] (K. pneumoniae A20468), 0.13 µg/mL (≈ 0.384 µM); in series [17] (E. cloacae A-9656), 0.13 µg/mL (≈ 0.384 µM); in series [18], 0.06 µg/mL (≈ 0.177 µM). This compound displayed an MIC in series [19] (S. pyogenes A-9604) of 0.0003 µg/mL (≈ 0.000887 µM). For the same compound, the AUC in [5] came to 7300 ng·h/mL. Moreover, the T1/2 in [5] was 10 min.

As for `C[C@@H](O)[C@H]1C(=O)N2C(C(=O)[O-])=C(SCCc3cccc[n+]3C)C[C@H]12` [Example 5, 3-(N-Methylpyridine-2-yl-ethanethio]-6α-[1-(R)-hydroxyethyl]-7-oxo-1-azabicyclo(3.2.0)hept-2-ene-2-carboxylate], the MIC in [20] was 8 µg/mL (≈ 23 µM); in series [1] (setting [21]), 0.016 µg/mL (≈ 0.0459 µM); in series [2] (setting [22]), 0.03 µg/mL (≈ 0.0861 µM); in series [3] (setting [23]) it was 0.06 µg/mL (≈ 0.172 µM); in series [4] (setting [24]) it was 4 µg/mL (≈ 11.5 µM); in [6] (setting [25]), 0.06 µg/mL (≈ 0.172 µM). Also, the MIC came to 0.06 µg/mL (≈ 0.172 µM) in series [7] (setting [26]); 0.016 µg/mL (≈ 0.0459 µM) in series [8] (setting [27]); 0.004 µg/mL (≈ 0.0115 µM) in series [8] (setting [28]); 0.008 µg/mL (≈ 0.023 µM) in series [10] (setting [29]); 0.004 µg/mL (≈ 0.0115 µM) in series [12] (Streptococcus pneumoniae, A9585, S. pneumoniae A-9585, read-out: MIC); 0.016 µg/mL (≈ 0.0459 µM) in series [14] (Escherichia coli, A15119, E. coli A15119, read-out: MIC). Moreover, the MIC in [15] (setting [30]) came to 0.13 µg/mL (≈ 0.373 µM); in series [16] (Klebsiella pneumoniae, A20468, K. pneumoniae A20468, read-out: MIC), 0.06 µg/mL (≈ 0.172 µM); in [17] (setting [31]) it was 0.13 µg/mL (≈ 0.373 µM); in series [18] (setting [32]), 0.03 µg/mL (≈ 0.0861 µM); in series [19] (Streptococcus pyogenes, A9604, S. pyogenes A-9604, read-out: MIC), 0.004 µg/mL (≈ 0.0115 µM).

Consider `C[C@@H](O)[C@H]1C(=O)N2C(C(=O)[O-])=C(SCc3cn(CC(=O)O)n[n+]3C)C[C@H]12` [Example 18, Potassium 3-[4-(1-carboxylatomethyl-3-methyl-1,2,3-triazolium)-methanethio]-6α-[1-(R)-hydroxyethyl]-7-oxo-1-azabicyclo[3.2.0]hept-2-ene-2-carboxylate], for which the MIC in series [2] (setting [22]) is 32 µg/mL; in [6] (setting [25]) it was 32 µg/mL; in [7] (setting [26]), 32 µg/mL; in series [8] (setting [28]), 32 µg/mL; in series [9] (Proteus vulgaris, A21559, P. vulgaris A21559, read-out: MIC) it was 32 µg/mL; in series [10] (setting [29]), over 125 µg/mL. The values for the minimal inhibitory concentration (MIC) in [15] (setting [30]), in [17] (setting [31]) and in series [18] (setting [32]) were 32 µg/mL, 125 µg/mL and 32 µg/mL, respectively.

Consider `C[C@@H](O)[C@H]1C(=O)N2C(C(=O)[O-])=C(SCc3cn(C)n[n+]3C)C[C@H]12` [Example 15 "A", 3-[4-(N,N-dimethyl-1,2,3-triazolium)methylthio]-6α-[1-(R)-hydroxyethyl]-7-oxo-1-azabicyclo(3.2.0)hept-2-ene-2-carboxylate], for which the MIC turned out to be 0.004 µg/mL (≈ 0.0118 µM) in series [1] (setting [21]); 0.008 µg/mL (≈ 0.0236 µM) in series [2] (setting [22]); 0.016 µg/mL (≈ 0.0473 µM) in series [3] (setting [23]); 0.5 µg/mL (≈ 1.48 µM) in series [4] (setting [24]); 0.03 µg/mL (≈ 0.0887 µM) in series [6] (Morganella morganii, M. morganii A15153, read-out: MIC); 0.008 µg/mL (≈ 0.0236 µM) in series [7] (setting [26]). The MIC in series [8] (setting [27]) was 0.03 µg/mL (≈ 0.0887 µM); in [8] (setting [28]) it was 0.03 µg/mL (≈ 0.0887 µM); in series [10] (setting [29]), 0.004 µg/mL (≈ 0.0118 µM); in series [11] (Pseudomonas aeruginosa, read-out: MIC), 0.03 µg/mL (≈ 0.0887 µM); in series [13] (Enterococcus faecalis, A20688, S. faecalis A20688, read-out: MIC), 0.13 µg/mL (≈ 0.384 µM); in series [14] (Escherichia coli, E. coli A15119, read-out: MIC), 0.004 µg/mL (≈ 0.0118 µM). The MIC in [15] (Providencia rettgeri, P. rettgeri A22424, read-out: MIC) was determined as 0.03 µg/mL (≈ 0.0887 µM); in series [16] (Klebsiella pneumoniae, K. pneumoniae A20468, read-out: MIC) it was 0.008 µg/mL (≈ 0.0236 µM); in series [17] (setting [31]), 0.016 µg/mL (≈ 0.0473 µM); in series [18] (setting [32]), 0.008 µg/mL (≈ 0.0236 µM).

The term MIC denotes the lowest concentration that inhibits growth of the organism. In general, AUC refers to concentration integrated over time. Read a high AUC as high exposure.
